{
  "source": "ChEMBL document CHEMBL3638637",
  "about": "“Imidazo[1,2-Œ±]pyridine sulfonamides as TRPM8 modulators” (2015)",
  "molecular_target": "Transient receptor potential M8 protein (Canis lupus familiaris, UniProt Q1A7N1)",
  "sequence (Q1A7N1 whole entry)": "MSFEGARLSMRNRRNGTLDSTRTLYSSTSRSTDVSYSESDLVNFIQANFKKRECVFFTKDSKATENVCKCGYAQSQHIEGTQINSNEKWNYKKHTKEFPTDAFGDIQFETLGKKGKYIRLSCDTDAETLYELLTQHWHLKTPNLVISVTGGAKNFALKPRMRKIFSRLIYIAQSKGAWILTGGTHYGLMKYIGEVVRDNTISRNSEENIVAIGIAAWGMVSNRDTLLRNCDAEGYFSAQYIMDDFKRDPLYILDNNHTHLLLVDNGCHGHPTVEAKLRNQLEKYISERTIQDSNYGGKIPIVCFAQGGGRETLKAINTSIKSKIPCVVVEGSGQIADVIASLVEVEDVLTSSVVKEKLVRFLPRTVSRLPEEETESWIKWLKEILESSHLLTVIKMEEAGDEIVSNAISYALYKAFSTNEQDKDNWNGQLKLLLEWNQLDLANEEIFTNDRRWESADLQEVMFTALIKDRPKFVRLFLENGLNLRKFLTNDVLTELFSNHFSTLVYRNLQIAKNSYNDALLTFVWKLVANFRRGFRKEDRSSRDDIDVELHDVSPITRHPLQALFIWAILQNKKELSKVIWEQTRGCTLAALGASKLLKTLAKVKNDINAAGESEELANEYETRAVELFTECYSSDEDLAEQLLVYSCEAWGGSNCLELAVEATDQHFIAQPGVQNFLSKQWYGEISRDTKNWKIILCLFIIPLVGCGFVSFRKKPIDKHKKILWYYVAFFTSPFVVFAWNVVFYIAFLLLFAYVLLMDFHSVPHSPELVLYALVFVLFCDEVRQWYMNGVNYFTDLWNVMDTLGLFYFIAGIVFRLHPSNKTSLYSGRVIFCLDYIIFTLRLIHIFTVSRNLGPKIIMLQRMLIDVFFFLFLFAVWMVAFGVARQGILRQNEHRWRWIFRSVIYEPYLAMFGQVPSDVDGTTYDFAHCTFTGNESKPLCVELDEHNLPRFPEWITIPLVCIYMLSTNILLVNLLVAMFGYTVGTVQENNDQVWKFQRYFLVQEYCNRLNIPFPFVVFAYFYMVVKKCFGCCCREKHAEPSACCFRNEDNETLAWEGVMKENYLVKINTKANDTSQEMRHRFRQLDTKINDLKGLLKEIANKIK",
  "experiment": "FLIPR Assay: The functional activity of compounds of the formula (I) was determined by measuring changes in intracellular calcium concentration using a Ca2+-sensitive fluorescent dye. The changes in fluorescent signal were monitored by a fluorescence plate reader, either a FLIPR (Molecular Devices) or FDSS (Hamamatsu). Increases in intracellular Ca2+ concentration were readily detected upon activation with icilin.At 24 hrs prior to assay, HEK293 cells stably expressing canine TRPM8 were seeded in culture medium in black wall, clear-base poly-D-lysine coated 384-well plates (BD Biosciences, NJ, USA) and grown overnight in 5% CO2 at 37° C. On assay day, growth media was removed and cells were loaded with Calcium 3 Dye (Molecular Devices) for 35 min at 37° C., under 5% CO2 and then for 25 min at room temperature and atmosphere.",
  "assay_type": "cell-based",
  "data": [
    {"smiles": "Cc1c(N(Cc2ccc(F)c(C(F)(F)F)c2)S(=O)(=O)c2ccc(C(=O)O)cc2)nc2ccc(Cl)cn12", "values": [
      {"measurement": "IC50", "result": 34.9, "unit": "nM"}
    ]}
  ]
}
